Measurements from ChEMBL document CHEMBL3507680, “University of Dundee, Gates Library screen for HepG2 cell viability”.

Assay: Human HepG2 cell viability assay in 384 well format
Type: toxicity, cell-based
Parameters: dose 125 nL, time 70.5 hour; cytotoxicity at 70.5 h: concentration not given beside the values
Settings: HepG2 cells, read-out: Inhibition

| Structure (SMILES) | cytotoxicity at 70.5 h [%] |
| --- | --- |
| O=c1[nH]ccc2cc(-c3cc(O)cc(CCC4CCCCN4)c3)ccc12 (stereo not given) | -7.29 |
| CS(=O)(=O)c1ccc(CC(=O)N2CCN3CCNC(=O)C3C2)cc1 (stereo not given) | -2.91 |
| OC(CN1CCN(Cc2cccnc2)CC1)c1cccs1 (stereo not given) | -3.13 |
| Cc1cc(C(=O)N2CCc3nc(C4CCCCN4)ncc3C2)cs1 (stereo not given) | -7.25 |
| COCC1c2c(cnn2C)CCN1C(=O)c1cscn1 (stereo not given) | -1.37 |
| Cc1ccc(C(NCC(=O)N2CCNC(=O)C2)c2ccccc2)cc1 (stereo not given) | -104 |
| CCCN1CCCC2(CCN(S(=O)(=O)c3cccnc3)C2)C1=O (stereo not given) | 2.74 |
| CN(C)CC1CN(Cc2coc(-c3cccc(F)c3)n2)CCO1 (stereo not given) | 3.34 |
| Cc1cc(C)nc(-n2nc(C)c3c2NC(=O)CSC3c2cnn(C)c2)n1 (stereo not given) | -31.4 |
| CC(C#N)CNC(=O)Nc1ccc(-c2ccc[nH]2)cc1 (stereo not given) | -0.22 |
| Cc1cccn2c(CNC(C)CCn3cccn3)cnc12 (stereo not given) | 3.49 |
| Cc1nc(-c2cccnc2)ncc1C(=O)N1CCC(C(C)N(C)C)CC1 (stereo not given) | -2.91 |
| CCC(Nc1ccc(Oc2ccccc2OC)cc1)C(N)=O (stereo not given) | -4.77 |
| NC(=O)CC1CCN(Cc2ccccc2OCC(F)(F)F)CC1 | -8.22 |
| C[C@@H]1CN(c2nc3c(cc2C(N)=O)CCC3)C[C@]1(C)O | -15 |
| O=C(O)c1ccc(Cc2cccc(F)c2)nc1 | -3.84 |
| CNC(=O)Cc1noc(-c2cc3c(s2)CCCCCC3)n1 | -7.62 |
| COc1ccc(CN[C@@H]2CO[C@H](CNC(=O)N3CCOCC3)[C@H]2O)cc1 | 2.1 |
| CCc1nnc2n1CCN(C(=O)CCc1ccc(C)c(Cl)c1)C2 | -1.97 |
| O[C@H]1CCCC[C@@H]1N1CCN(CCCc2ccc3c(c2)OCO3)CC1 | -6.44 |
| O=C(NC1CC1)NC(c1ccc(F)cc1)C1CC1 (stereo not given) | -7.03 |
| CCCc1cc(NCCn2cccn2)n2ncnc2n1 | -6.07 |
| Cc1cc(NCC2CCN(c3ccccc3)C2)n2ncnc2n1 (stereo not given) | -1.33 |

| Structure (SMILES) | cytotoxicity at 70.5 h [%] |
| --- | --- |
| CCN(Cc1cnn(CC)c1)C(=O)CN1C(=O)CCc2ccccc21 | -4.74 |
| O=C1CC2(CCN(Cc3ccoc3)CC2)CN1Cc1cc(F)cc(F)c1 | -6.12 |
| CC(C)=CCN1CC2(CCN(Cc3cccc(C#N)c3)CC2)CC1=O | 8.66 |
| CC1(C)CC1(C(=O)N1CC(c2cccnc2)C1)c1ccc(F)cc1 (stereo not given) | 29.7 |
| Cc1cc(C)c(CNC(=O)C(C)Oc2ccccc2C#N)c(=O)[nH]1 (stereo not given) | -13.5 |
| COc1ncc(NCc2ccc(F)cc2)cc1C(N)=O | -6.54 |
| CC(=O)N(C)Cc1cccc(NC(=O)CCCc2nc(C(C)C)no2)c1 | 9.44 |
| O=C(NCCN1CCCC1)c1ccc2c(-c3nccs3)noc2c1 | -6.42 |
| CC(=O)N1CCN(c2cnnc(N3CCCC3)c2)CC1 | -1.26 |
| Cn1cc(CN2CC[C@@H](O)[C@@H]2Cc2ccccc2)cn1 | -7.36 |
| CC(C)N1Cc2cccc(NCC(=O)N(C)C3CCCCC3)c2C1 | -0.0699 |
| CC(C)c1noc(-c2ccc(NCC3CCCOC3)nc2)n1 (stereo not given) | -12.4 |
| CCn1nc2c(cc1=O)CN(Cc1nc3ccccc3c(=O)[nH]1)CC2 | 0.253 |
| CCc1noc(C2CCCCN2C(=O)c2ccc3c(c2)OCO3)n1 (stereo not given) | -4.04 |
| COc1ccccc1CC1CCCN(CC(=O)NC2CC2)C1 (stereo not given) | -8.21 |
| CC(CS(C)(=O)=O)N(C(=O)c1ccc(Cl)s1)C1CC1 (stereo not given) | -9.46 |
| CCNC(=O)CN1CCC(OCC2CCCO2)CC1 (stereo not given) | -6.63 |
| O=C(NCc1ncc(-c2ccccc2)o1)NC1CCC(O)CC1 (stereo not given) | -7.39 |
| Cc1ccc(-c2cc(C(=O)N3CCCC3c3cccnc3)[nH]n2)o1 (stereo not given) | -4.23 |
| COc1ccc(CN2CCC3(CCN(c4cccnc4)C3=O)C2)cc1 (stereo not given) | 1.92 |
| CCN(CC)S(=O)(=O)CC(=O)N1CCc2ccc(F)cc21 | -2.84 |
| CC(=O)N1CCCN(C(=O)NCCOc2ccc3c(c2)CCC3)CC1 | -4.61 |
| COCCC(=O)N1CCCC2(CCN(c3ccccc3)C2=O)C1 (stereo not given) | -11 |

| Structure (SMILES) | cytotoxicity at 70.5 h [%] |
| --- | --- |
| CN1CCc2nnc(C3CCCN3S(=O)(=O)c3ccc(F)cc3)n2CC1 (stereo not given) | -3.97 |
| CC(C)n1nc2c(cc1=O)CN(CC(=O)N(C)c1nccs1)CC2 | 6.02 |
| CCCc1n[nH]c(C2CN(CCNS(C)(=O)=O)CCO2)n1 (stereo not given) | 25.5 |
| CC(=O)N1CCN(Cc2ccncc2)CC2(CC(=O)N(C)C2)C1 (stereo not given) | -7.88 |
| Cc1nc(N)nc(C)c1CC(=O)N1CCC2(CC1)OCCCC2O (stereo not given) | -13.9 |
| CCO[C@@H]1CC[C@H]2[C@H]1OCCN2CC1CCOCC1 | 38.8 |
| COc1ccc(C(=O)C2CCCN(c3cc(OC)ncn3)C2)c(C)c1 (stereo not given) | 10.1 |
| Cc1n[nH]c(C)c1-c1nccnc1CC1CCN(S(C)(=O)=O)C1 (stereo not given) | -7.83 |
| Cc1cc(N2CCC(n3cc(CN4CCSCC4)nn3)CC2)ccn1 | 1.06 |
| CCN1CCN(c2ccc(C(=O)NCc3cc(C)no3)cc2F)CC1 | -4.13 |
| CCc1[nH]c2c(CNC(=O)[C@@H]3CCCN3C)cc(C)cc2c1C | 6.71 |
| COCC(O)CN1CC(C)(C)CN(C(=O)CCc2ccccc2)CC1=O (stereo not given) | 0.943 |
| Cc1cncc(C2CCCN(Cc3cccn3C)C2)n1 (stereo not given) | 0.452 |
| CNc1nc(CNC(=O)Nc2cccc(C(C)OC)c2)cs1 (stereo not given) | -4.31 |
| COCCCN1CC2(CCC1=O)CCN(Cc1cc(C(C)C)no1)CC2 | 29.5 |
| CSc1nc(N)c2c(n1)N=C1COC(O)=C1C2c1cccc(Cl)c1 (stereo not given) | 47.4 |
| CCC(C)(N)c1nc(=O)c(C(C)C)c(C)[nH]1 (stereo not given) | -5.63 |
| CCOc1ccc(NC(C)=O)cc1S(=O)(=O)Nc1nccs1 | 22.7 |
| COCC(NC1CCSCC1)c1ccnn1C (stereo not given) | 21.8 |
| Cc1ccc(C)c(S(=O)(=O)CCN2CCc3c(ncn3C)C2)c1 | 16 |
| Cc1ncsc1C(=O)Nc1ccccn1 | -6.03 |
| Cn1ccnc1C1(O)CCN(C(=O)CCc2ccccc2)CC1 | -5.37 |
| N#CC(NC(=O)CCC1CCC1)c1cnn(-c2ccccc2)c1 (stereo not given) | 17.3 |

| Structure (SMILES) | cytotoxicity at 70.5 h [%] |
| --- | --- |
| CC(=O)N(Cc1ncc(C)o1)C1CCN(Cc2noc(C)n2)C1 (stereo not given) | -5.31 |
| O=c1n(CCSCCOc2ccc(Br)cc2)nc2ccccn12 | -10.7 |
| COc1ccc(CNCc2nnc3n2CC(C(F)(F)F)CC3)cc1 (stereo not given) | 26.4 |
| COCc1ncc(CN2CCC3(CCC(=O)N(CC(C)O)C3)CC2)cn1 (stereo not given) | -9.93 |
| CCc1n[nH]c(C2CN(C(=O)c3ccc4c(c3)CCC4)CCO2)n1 (stereo not given) | -2.27 |
| COCC(=O)N1CCC2(CCC(C(=O)N3CCCC3)O2)CC1 (stereo not given) | 10.4 |
| Cn1cnc2c1CCN(CCS(=O)(=O)c1ccccc1)C2 | -17 |
| O=C(Cc1cccc(F)c1)NCCNS(=O)(=O)C1CCCC1 | -12.5 |
| CC(C)CN1CCN(C(=O)NCc2cccnc2-n2cccn2)CC1 | 3.85 |
| COc1cccc(CCNC(=O)NC(C)C)c1O | 9.97 |
| Cc1cc(CCC(N)=O)cc(C2CCCN2Cc2ccnn2C)n1 (stereo not given) | -6.78 |
| CN(C)C(C)(C)CNCc1c[nH]nc1-c1cc2ccccc2o1 | 10 |
| CC(C)c1noc(CN(C)C(=O)c2ccccc2-c2nc[nH]n2)n1 | 6.97 |
| Cc1ccc(C(=O)NCc2ccnc(C3CCCOC3)n2)s1 (stereo not given) | 10.5 |
| CC(C)c1nnc(CN2CCc3ccc(S(N)(=O)=O)cc32)o1 | -0.0777 |
| CC(C)Cc1noc(CN2CCN(c3nccs3)CC2)n1 | -3.87 |
| CS(=O)(=O)N1CCC(NC(=O)COc2ccc3ccccc3c2)CC1 | -1.61 |
| CC(C)N(C)CC(=O)NCCc1nc(C(F)(F)F)cs1 | -5.26 |
| Cc1nc(N(C)C)nc(-c2cccc(-c3ccn(CCCF)n3)c2)c1C | -10.9 |
| Cc1nc(O)cc(C2CCN(Cc3cccc(F)c3F)C2)n1 (stereo not given) | -14.5 |
| c1cnc(Nc2cc(CCC3CCCNC3)ccn2)cn1 (stereo not given) | -4.31 |
| COc1cc2c(cc1CNC(=O)Cc1ccc(C)nc1)OC(C)C2 (stereo not given) | -6.1 |
| Cc1cnn(-c2cccc(N3CCCC3)n2)c1 | -1.27 |

| Structure (SMILES) | cytotoxicity at 70.5 h [%] |
| --- | --- |
| CCN(CC)c1ncccc1CNCc1ccc(-c2ccn[nH]2)s1 | -6.37 |
| CC(C)(N)c1cn(C2CCN(c3ncccc3Cl)CC2)nn1 | -9.17 |
| O=C(c1cc[nH]n1)N1CC[C@@H]2CN(Cc3ccccc3)S(=O)(=O)[C@@H]2CC1 | -13.3 |
| Cc1[nH]c2ccc(C#N)cc2c1CCNc1ncnc2c1CCNCC2 | -1.54 |
| CCN(CC)C(=O)c1ccn(COc2c(Cl)cccc2Cl)n1 | -10.4 |
| O=C(Nc1cc(N2CCOCC2)ncn1)c1cnccn1 | -3.66 |
| CCCC(N)CNS(=O)(=O)Cc1cccc(C#N)c1 (stereo not given) | -3.64 |
| Cc1csc2c(N3CCC(NCCCc4ccncc4)CC3)ncnc12 | -7.45 |
| Cc1n[nH]c(C2CN(C(=O)c3scnc3C)CCO2)n1 (stereo not given) | -7.66 |
| Nc1nc(Sc2cccs2)cc(N2CC[C@H](CO)[C@H](O)C2)n1 | 22.1 |
| CCOc1ccc(Cl)c(C(=O)NCc2ccc(C(=O)NC)cc2)n1 | 4.62 |
| COCCS(=O)(=O)Cc1csc(NC(C)=O)n1 | -16 |
| CC(C)c1noc(CCC(=O)N2CCN(Cc3ccncc3)CC2)n1 | -7.35 |
| O=C1COc2ccc(S(=O)(=O)NCc3ccccc3)c3c2N1CCC3 | 4.09 |
| Cc1ccc(C(C)NC(=O)Nc2ccccc2CN2CCOCC2)o1 (stereo not given) | -11.2 |
| Cn1ccnc1CN1CCC2(CC(=O)N(c3ccsc3)C2)C1 (stereo not given) | -8.8 |
| CCC[C@H]1CN(Cc2cscn2)C[C@@H]1NC(=O)C1(COC)CCC1 | -4.5 |
| CNc1cccc(C2CCCN(C(=O)c3ccncc3)C2)n1 (stereo not given) | -2.97 |
| COc1cccc(N2Cc3nc(=O)[nH]n3C2=O)c1 | -16.5 |
| Cn1cccc1C(=O)N1CCc2c(CNS(C)(=O)=O)cncc2C1 | -18.4 |
| CCc1ocnc1C(=O)N1CCC2(CC1)OCC(C)O2 (stereo not given) | -5.57 |
| O=C(Nc1nncs1)c1ccc(-n2cnnn2)cc1 | 1.5 |
| Cc1cc(-c2ccc(=O)n(CCNC(=O)C3CCCCC3)n2)c(C)o1 | -1.98 |
